biological target: T1, human FXa (Homo sapiens, UniProt P00742); assay: Measurement of the human FXa inhibitory action; type: biochemical; conditions: human FXa 0.019 U/ml, substrate S-2222 0.4 mM, 37° C., Tris-HCl buffer pH 7.5
T1 construct: purchased Enzyme Research Laboratories, Inc
Protocol: In vitro FXa inhibitory activity may be measured according to the method of Kettner et al. (Journal of Biological Chemistry, vol. 265, pages 18289 to 18297, 1990). To be more specific, human FXa (product of Enzyme Research Laboratories, Inc., 0.019 U/ml) is mixed with the specimens (of the compound of the present invention) prepared by diluting the compound of the invention with dimethylsulfoxide (DMSO) to different concentrations and synthetic substrate S-2222 (Chromogenix AB, 0.4 mM), and the mixtures are incubated at 37° C. in Tris-hydrochloric acid buffer (pH 7.5). The FXa inhibitory activity of the specimen is calculated by continuously observing the absorbance at 405 nm, and comparing the initial speed with the initial speed in the absence of the specimen.
It should be noted that the FXa inhibitory activity of the specimen is generally indicated as IC50.

T1 sequence (P00742 235-488 limits assumed): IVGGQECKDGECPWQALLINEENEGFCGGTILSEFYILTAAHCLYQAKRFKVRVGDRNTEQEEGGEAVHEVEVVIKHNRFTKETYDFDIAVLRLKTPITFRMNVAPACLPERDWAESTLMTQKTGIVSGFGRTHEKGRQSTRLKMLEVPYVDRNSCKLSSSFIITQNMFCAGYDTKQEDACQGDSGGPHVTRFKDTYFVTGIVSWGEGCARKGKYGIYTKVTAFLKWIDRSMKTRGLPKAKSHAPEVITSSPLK
T1 sequence (P00742 41-179 partner limits assumed): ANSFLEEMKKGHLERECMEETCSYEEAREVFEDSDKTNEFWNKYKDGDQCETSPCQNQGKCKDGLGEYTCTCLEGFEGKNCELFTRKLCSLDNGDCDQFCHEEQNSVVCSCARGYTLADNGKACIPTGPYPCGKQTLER

Row | Compound | IC50 [nM]
1 | COCC12CN(S(=O)(=O)c3cc4cc(Cl)ccc4[nH]3)CC(=O)N1CC1(CCN(C(C)=O)CC1)O2 (single isomer, unassigned; (-)) [Example 34, (−)-1′-acetyl-7-[(5-chloro-1H-indol-2-yl)sulfonyl]tetrahydro-8a-(methoxymethyl)-spiro[5H-oxazolo[3,2-a]pyrazine-2(3H),4′-piperidin]-5-one] | 8.2
2 | CCC(=O)N1CCC2(CC1)CN1C(=O)CN(S(=O)(=O)c3cc4cc(Cl)ccc4[nH]3)CC1(CN(C)CC(=O)O)O2 (single isomer, unassigned) [Example 66, optically active N-[[7-[(5-chloro-1H-indol-2-yl)sulfonyl]tetrahydro-5-oxo-1′-propanoyl-spiro[5H-oxazolo[3,2-a]pyrazine-2(3H),4′-piperidin]-8a-yl]methyl]-N-methylglycine] | 1.6
3 | CC(=O)NCC12CN(S(=O)(=O)c3cc4cc(Cl)ccc4[nH]3)CC(=O)N1CC1(CCN(C(C)=O)CC1)N2C (single isomer, unassigned) [Example 21, optically active 1′-acetyl-8a-(acetylaminomethyl)-7-[(5-chloro-1H-indol-2-yl)sulfonyl]tetrahydro-1-methyl-spiro[imidazo[1,2-a]pyrazine-2(3H),4′-piperidin]-5(1H)-one] | 5.6
4 | CC(=O)N1CCC2(CC1)CN1C(=O)CN(S(=O)(=O)c3cc4cc(Cl)ccc4[nH]3)CC1(CN(C)C)O2 (single isomer, unassigned) [Example 60, optically active 1′-acetyl-7-[(5-chloro-1H-indol-2-yl)sulfonyl]tetrahydro-8a-(N,N-dimethylaminomethyl)-spiro[5H-oxazolo[3,2-a]pyrazine-2(3H),4′-piperidin]-5-one] | 4.5
5 | COCC12CN(S(=O)(=O)c3cc4cc(Cl)ccc4[nH]3)CC(=O)N1CC1(CCN(C(C)=O)CC1)N2C (single isomer, unassigned; (-)) [Example 1, (−)-1′-acetyl-7-[(5-chloro-1H-indol-2-yl)sulfonyl]tetrahydro-8a-(methoxymethyl)-1-methyl-spiro[imidazo[1,2-a]pyrazine-2(3H),4′-piperidin]-5(1H)-one] | 5.7
6 | CCC(=O)N1CCC2(CC1)CN1C(=O)CN(S(=O)(=O)c3cc4cc(Cl)ccc4[nH]3)CC1(COC)N2C (single isomer, unassigned; (-)) [Example 2, (−)-7-[(5-chloro-1H-indol-2-yl)sulfonyl]tetrahydro-8a-(methoxymethyl)-1-methyl-1′-propanoyl-spiro[imidazo[1,2-a]pyrazine-2(3H),4′-piperidin]-5(1H)-one] | 1.8
7 | COCC12CN(S(=O)(=O)c3cc4cc(Cl)ccc4[nH]3)CC(=O)N1CC1(CCN(C(=O)C3CCC3)CC1)N2C (single isomer, unassigned; (-)) [Example 3, (−)-7-[(5-chloro-1H-indol-2-yl)sulfonyl]-1′-cyclobutanecarbonyl-tetrahydro-8a-(methoxymethyl)-1-methyl-spiro[imidazo[1,2-a]pyrazine-2(3H),4′-piperidin]-5(1H)-one] | 1.3
8 | C#CC(=O)N1CCC2(CC1)CN1C(=O)CN(S(=O)(=O)c3cc4cc(Cl)ccc4[nH]3)CC1(COC)N2C (single isomer, unassigned; (-)) [Example 13, (−)-7-[(5-chloro-1H-indol-2-yl)sulfonyl]tetrahydro-8a-(methoxymethyl)-1-methyl-1′-propinoyl-spiro[imidazo[1,2-a]pyrazine-2(3H),4′-piperidin]-5(1H)-one] | 2.6
9 | CCC(=O)N1CCC2(CC1)CN1C(=O)CN(S(=O)(=O)c3cc4cc(Cl)ccc4[nH]3)CC1(COC)N2 (single isomer, unassigned; (-)) [Example 26, (−)-7-[(5-chloro-1H-indol-2-yl)sulfonyl]tetrahydro-8a-(methoxymethyl)-1′-propanoyl-spiro[imidazo[1,2-a]pyrazine-2(3H),4′-piperidin]-5(1H)-one] | 5.7
10 | C#CC(=O)N1CCC2(CC1)CN1C(=O)CN(S(=O)(=O)c3cc4ccc(Cl)cc4s3)CC1(COC)N2C (single isomer, unassigned; (-)) [Example 17, (−)-7-[(6-chloro-benzo[b]thiophen-2-yl)sulfonyl]tetrahydro-8a-(methoxymethyl)-1-methyl-1′-propinoyl-spiro[imidazo[1,2-a]pyrazine-2(3H),4′-piperidin]-5(1H)-one] | 6.5

test system: human plasma; assay: Measurement of intrinsic coagulation time (APTT) in vitro; type: biochemical; conditions: APTT reagent, 37° C., calcium chloride 25 mM
Protocol: Activated partial thromboplastin time (APTT) is measured in the presence of the test compounds of the present invention diluted at various concentrations. To be more specific, each of the test compounds diluted with DMSO at various concentrations is mixed with human plasma and APTT reagent. The mixture is incubated at 37° C. for 2 minutes; calcium chloride (25 mM) is added to the mixture; and the coagulation time is thereafter measured. It should be noted that the anticoagulant activity of the test compound is described in terms of the concentration required to double the coagulation time for the case where no test compound is added.

Row | Compound | Concentration when APTT was doubled [µM]
11 | COCC12CN(S(=O)(=O)/C=C/c3ccc(Cl)s3)CC(=O)N1CC1(CCN(C(C)=O)CC1)N2C (single isomer, unassigned; (-)) [Example 14, (−)-1′-acetyl-7-[[(1E)-2-(5-chloro-2-thienyl)ethenyl]sulfonyl]tetrahydro-8a-(methoxymethyl)-1-methyl-spiro[imidazo[1,2-a]pyrazine-2(3H),4′-piperidin]-5(1H)-one] | 0.64
12 | CCOC(=O)CN(C)CC12CN(S(=O)(=O)c3cc4cc(Cl)ccc4[nH]3)C[C@@H](O)N1CC1(CCN(C(=O)CC)CC1)O2 (single isomer, unassigned) [Example 64, optically active 7-[(5-chloro-1H-indol-2-yl)sulfonyl]tetrahydro-8a-[(N-ethoxycarboxymethyl)-N-methylaminomethyl]-1′-propanoyl-spiro[5H-oxazolo[3,2-a]pyrazine-2(3H),4′-piperidin]-5-one] | 0.89
13 | CC(=O)NCC12CN(S(=O)(=O)c3cc4cc(Cl)ccc4[nH]3)CC(=O)N1CC1(CCN(C(C)=O)CC1)N2C (single isomer, unassigned) [Example 21, optically active 1′-acetyl-8a-(acetylaminomethyl)-7-[(5-chloro-1H-indol-2-yl)sulfonyl]tetrahydro-1-methyl-spiro[imidazo[1,2-a]pyrazine-2(3H),4′-piperidin]-5(1H)-one] | 0.36
14 | COC(=O)COCC12CN(S(=O)(=O)c3cc4cc(Cl)ccc4[nH]3)CC(=O)N1CC1(CCN(C(C)=O)CC1)O2 (single isomer, unassigned; (-)) [Example 54, (−)-1′-acetyl-7-[(5-chloro-1H-indol-2-yl)sulfonyl]tetrahydro-8a-(methoxycarbonylmethoxymethyl)-spiro[5H-oxazolo[3,2-a]pyrazine-2(3H),4′-piperidin]-5-one] | 0.4
15 | C=CC(=O)N1CCC2(CC1)CN1C(=O)CN(S(=O)(=O)c3cc4cc(Cl)ccc4[nH]3)CC1(COC)N2C (single isomer, unassigned; (-)) [Example 4, (−)-7-[(5-chloro-1H-indol-2-yl)sulfonyl]tetrahydro-8a-(methoxymethyl)-1-methyl-1′-propenoyl-spiro[imidazo[1,2-a]pyrazine-2(3H),4′-piperidin]-5(1H)-one] | 0.5
16 | CC(=O)N1CCC2(CC1)CN1C(=O)CN(S(=O)(=O)c3cc4cc(Cl)ccc4[nH]3)CC1(COc1ncccn1)O2 (single isomer, unassigned; (-)) [Example 56, (−)-1′-acetyl-7-[(5-chloro-1H-indol-2-yl)sulfonyl]tetrahydro-8a-(2-pyrimidyloxymethyl)-spiro[5H-oxazolo[3,2-a]pyrazine-2(3H),4′-piperidin]-5-one] | 0.5
17 | CCN1C2(CCN(C(C)=O)CC2)CN2C(=O)CN(S(=O)(=O)c3cc4cc(Cl)ccc4[nH]3)CC21COC (single isomer, unassigned; (-)) [Example 23, (−)-1′-acetyl-7-[(5-chloro-1H-indol-2-yl)sulfonyl]tetrahydro-1-ethyl-8a-(methoxymethyl)-spiro[imidazo[1,2-a]pyrazine-2(3H),4′-piperidin]-5(1H)-one] | 0.19
18 | CCC(=O)N1CCC2(CC1)CN1C(=O)CN(S(=O)(=O)c3cc4cc(Cl)ccc4[nH]3)CC1(COC)N2 (single isomer, unassigned; (-)) [Example 26, (−)-7-[(5-chloro-1H-indol-2-yl)sulfonyl]tetrahydro-8a-(methoxymethyl)-1′-propanoyl-spiro[imidazo[1,2-a]pyrazine-2(3H),4′-piperidin]-5(1H)-one] | 0.44
19 | COCC12CN(S(=O)(=O)/C=C/c3ccc(Cl)s3)CC(=O)N1CC1(CCN(C(C)=O)CC1)O2 (single isomer, unassigned; (-)) [Example 36, (−)-1′-acetyl-7-[[(1E)-2-(5-chloro-2-thienyl)ethenyl]sulfonyl]tetrahydro-8a-(methoxymethyl)-spiro[5H-oxazolo[3,2-a]pyrazine-2(3H),4′-piperidin]-5-one] | 0.83
20 | C#CC(=O)N1CCC2(CC1)CN1C(=O)CN(S(=O)(=O)c3cc4ccc(Cl)cc4s3)CC1(COC)N2C (single isomer, unassigned; (-)) [Example 17, (−)-7-[(6-chloro-benzo[b]thiophen-2-yl)sulfonyl]tetrahydro-8a-(methoxymethyl)-1-methyl-1′-propinoyl-spiro[imidazo[1,2-a]pyrazine-2(3H),4′-piperidin]-5(1H)-one] | 0.87
21 | O=C(C1CC1)N1CCC2(CC1)CN1C(=O)CN(S(=O)(=O)c3cc4cc(Cl)ccc4[nH]3)CC1(CO)O2 (single isomer, unassigned; (-)) [Example 52, (−)-7-[(5-chloro-1H-indol-2-yl)sulfonyl]tetrahydro-1′-cyclopropanoyl-8a-(hydroxymethyl)-spiro[5H-oxazolo[3,2-a]pyrazine-2(3H),4′-piperidin]-5-one] | 0.57

— patent US20090076015A1, “Tricyclic Spiro Compound Comprising Acyl Group Bound to Nitrogen Atom in the Ring” (priority 2005, published 2009)
